Laboratory results reported in patent US12534450B2, “Methods and compositions for targeting PD-L1” (Aligos Therapeutics, Inc., priority 2021, dated 2026).
pEC50, pIC50: −log10 of the molar value.

biological target: PD-1/PD-L1 PPI (Homo sapiens, UniProt Q9NZQ7); experiment: PDL1/PD1 Binding Assay; conditions: PDL1-6×His 0.3 nM, PD1-Fc-Avi-Biotin 2.5 nM, Acceptor/Donor beads, Envision reader
Method: Compounds to be tested were serially diluted in DMSO, and further diluted in assay buffer (25 mM Hepes pH 7.4, 150 mM NaCl, 0.005% Tween 20, BSA 0.01%). Diluted compounds were added to the wells with final concentration of DMSO at 1%. PDL1-6×His protein was added to the wells, mixed well with compound. The plates were incubated for 30 min at room temperature. PD1-Fc-Avi-Biotin protein was added to the wells. Final concentration of PDL1 and PD1 protein is 0.3 nM and 2.5 nM, respectively. After a binding time of 30 min at room temperature, Anti-6×His Acceptor beads (final concentration 20 ug/ml) were added to the wells, and the incubation continued for 1 h. Streptavidin Donor beads (final concentration 20 ug/mL) were added at reduced light. The plates were sealed with foil and incubated in the dark for additional 1 h or overnight before reading on an Envision reader. The IC50 values were determined by fitting the curves using a four-parameter equation in Graphpad Prism 8.

Chain of PD-1/PD-L1 PPI (Q9NZQ7 19-238 limits assumed): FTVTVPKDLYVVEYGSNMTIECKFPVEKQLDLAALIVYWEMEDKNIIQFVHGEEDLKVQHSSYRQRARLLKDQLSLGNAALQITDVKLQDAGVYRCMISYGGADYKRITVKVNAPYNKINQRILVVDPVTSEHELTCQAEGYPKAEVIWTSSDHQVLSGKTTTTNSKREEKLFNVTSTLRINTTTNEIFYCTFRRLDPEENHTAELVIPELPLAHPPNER

`COc1nc(-c2cccc(-c3cccc(NC(=O)c4nn(C)c(=O)n(C)c4=O)c3C)c2Cl)cc2c1[C@H](N[C@@H]1COC[C@H]1O)CC2` (single isomer, unassigned) [Compound A-102] and `COc1nc(-c2cccc(-c3cccc(NC(=O)c4nn(C)c(=O)n(C)c4=O)c3C)c2Cl)cc2c1[C@@H](N[C@@H]1COC[C@@H]1O)CC2` (single isomer, unassigned) [Compound A-109] cannot be ordered by pIC50: no less than 8.00 for the first, no less than 8.00 for the second.

`COc1nc(-c2cccc(-c3cccc(NC(=O)c4nn(C)c(=O)n(C)c4=O)c3C)c2C)cc2c1[C@@H](N[C@@H]1COC[C@H]1O)CC2` (single isomer, unassigned) [Compound A-103] and `COc1nc(-c2cccc(-c3cccc(NC(=O)c4nn(C)c(=O)n(C)c4=O)c3C)c2C)cc2c1[C@H](N[C@@H]1COC[C@H]1O)CC2` (single isomer, unassigned) [Compound A-104] cannot be ordered by pIC50: 7.00 to 8.00 for the first, no less than 8.00 for the second.

`COc1nc(-c2cccc(-c3cccc(NC(=O)c4cn(C)c(=O)n(C)c4=O)c3C)c2C)cc2c1[C@@H](N[C@@H]1COC[C@@H]1O)CC2` (single isomer, unassigned) [Compound A-105] and `COc1nc(-c2cccc(-c3cccc(NC(=O)c4cn(C)c(=O)n(C)c4=O)c3C)c2C)cc2c1[C@H](N[C@@H]1COC[C@@H]1O)CC2` (single isomer, unassigned) [Compound A-106] cannot be ordered by pIC50: 7.00 to 8.00 for the first, no less than 8.00 for the second.

`COc1nc(-c2cccc(-c3cccc(NC(=O)c4nn(C)c(=O)n(C)c4=O)c3Cl)c2Cl)cc2c1[C@@H](N[C@@H]1COC[C@@H]1O)CC2` (single isomer, unassigned) [Compound A-107] and `COc1nc(-c2cccc(-c3cccc(NC(=O)c4nn(C)c(=O)n(C)c4=O)c3Cl)c2Cl)cc2c1[C@H](N[C@@H]1COC[C@@H]1O)CC2` (single isomer, unassigned) [Compound A-108] cannot be ordered by pIC50: no less than 8.00 for the first, no less than 8.00 for the second.

`COc1nc(-c2cccc(-c3cccc(NC(=O)c4nn(C)c(=O)n(C)c4=O)c3C)c2Cl)cc2c1[C@H](N[C@@H]1COC[C@@H]1O)CC2` (single isomer, unassigned) [Compound A-110] and `COc1nc(-c2cccc(-c3cccc(NC(=O)c4nn(C)c(=O)n(C)c4=O)c3C)c2C)cc2c1[C@@H](N[C@@H]1COC[C@@H]1O)CC2` (single isomer, unassigned) [Compound A-111] cannot be ordered by pIC50: no less than 8.00 for the first, no less than 8.00 for the second.

`COc1nc(-c2cccc(-c3cccc(NC(=O)c4nn(C)c(=O)n(C)c4=O)c3C)c2C)cc2c1[C@H](N[C@@H]1COC[C@@H]1O)CC2` (single isomer, unassigned) [Compound A-112] and `COc1nc(-c2cccc(-c3cccc(NC(=O)c4cn(C)c(=O)n(C)c4=O)c3C)c2Cl)cc2c1[C@@H](NC[C@H]1CCC(=O)N1)CC2` (single isomer, unassigned) [Compound A-113] cannot be ordered by pIC50: no less than 8.00 for the first, 7.00 to 8.00 for the second.

`COc1nc(-c2cccc(-c3cccc(NC(=O)c4cn(C)c(=O)n(C)c4=O)c3C)c2Cl)cc2c1[C@H](NC[C@H]1CCC(=O)N1)CC2` (single isomer, unassigned) [Compound A-114] and `COCCOc1nc(-c2cccc(-c3cccc(NC(=O)c4cn(C)c(=O)n(C)c4=O)c3C)c2Cl)cc2c1[C@@H](NC[C@@H]1CCC(=O)N1)CC2` (single isomer, unassigned) [Compound A-115] cannot be ordered by pIC50: no less than 8.00 for the first, no less than 8.00 for the second.

`COCCOc1nc(-c2cccc(-c3cccc(NC(=O)c4cn(C)c(=O)n(C)c4=O)c3C)c2Cl)cc2c1[C@H](NC[C@@H]1CCC(=O)N1)CC2` (single isomer, unassigned) [Compound A-116] and `COc1nc(-c2cccc(-c3cccc(NC(=O)c4cn(C)c(=O)n(C)c4=O)c3C)c2Cl)cc2c1C(NC[C@@H]1CCC(=O)N1)C(O)C2` (single isomer, unassigned) [Compound A-125] cannot be ordered by pIC50: no less than 8.00 for the first, no less than 8.00 for the second.

For `COc1nc(-c2cccc(-c3cccc(NC(=O)c4cn(C)c(=O)n(C)c4=O)c3C)c2Cl)cc2c1C(NC[C@@H]1CCC(=O)N1)C(O)C2` (single isomer, unassigned) [Compound A-126], the pIC50 was no less than 8.00.

test system: PD-1/PD-L1 interaction; experiment: PD-1/PD-L1 NFAT Reporter Assay (co-culture of Jurkat T cells overexpressing PD-1 and PD-L1 expressing CHO cells); format: cell-based; conditions: Homo sapiens, Jurkat, 6 h, co-culture 6 hrs at 37° C., NFAT-mediated luciferase activity
Method: Blocking the PD-1/PD-L1 interaction will release the inhibitory signal and results in TCR signaling and NFAT-mediated luciferase activity.
CHO cells expressing surface-bound anti-CD3 antibodies and PD-L1 were first seeded overnight and treated with the compounds. Jurkat cells overexpressing PD-1 and a luciferase construct under NFAT promoter were then immediately seeded on the monolayer of CHO cells. The co-culture was then incubated for 6 hrs at 37° C. Luciferase activity was assessed by adding the ONE-Glo reagent and measuring luminescence with a plate reader. EC50 values were determined from the fit of the dose-response curves.

`COc1nc(-c2cccc(-c3cccc(NC(=O)c4nn(C)c(=O)n(C)c4=O)c3C)c2Cl)cc2c1[C@H](N[C@@H]1COC[C@H]1O)CC2` (single isomer, unassigned) [Compound A-102] and `COc1nc(-c2cccc(-c3cccc(NC(=O)c4nn(C)c(=O)n(C)c4=O)c3C)c2Cl)cc2c1[C@@H](N[C@@H]1COC[C@@H]1O)CC2` (single isomer, unassigned) [Compound A-109] cannot be ordered by pEC50: no less than 8.00 for the first, no less than 8.00 for the second.

First: COc1nc(-c2cccc(-c3cccc(NC(=O)c4nn(C)c(=O)n(C)c4=O)c3C)c2C)cc2c1[C@@H](N[C@@H]1COC[C@H]1O)CC2 (single isomer, unassigned) [Compound A-103]
Second: COc1nc(-c2cccc(-c3cccc(NC(=O)c4nn(C)c(=O)n(C)c4=O)c3C)c2C)cc2c1[C@H](N[C@@H]1COC[C@H]1O)CC2 (single isomer, unassigned) [Compound A-104]
The pEC50 of the first is lower: less than 5.30 for the first, 7.00 to 8.00 for the second.

Compared with `COc1nc(-c2cccc(-c3cccc(NC(=O)c4cn(C)c(=O)n(C)c4=O)c3C)c2C)cc2c1[C@@H](N[C@@H]1COC[C@@H]1O)CC2` (single isomer, unassigned) [Compound A-105], `COc1nc(-c2cccc(-c3cccc(NC(=O)c4cn(C)c(=O)n(C)c4=O)c3C)c2C)cc2c1[C@H](N[C@@H]1COC[C@@H]1O)CC2` (single isomer, unassigned) [Compound A-106] is lower in pEC50: 7.00 to 8.00 for the first, 6.00 to 7.00 for the second. The first is the more potent here.

Compared with `COc1nc(-c2cccc(-c3cccc(NC(=O)c4nn(C)c(=O)n(C)c4=O)c3Cl)c2Cl)cc2c1[C@@H](N[C@@H]1COC[C@@H]1O)CC2` (single isomer, unassigned) [Compound A-107], `COc1nc(-c2cccc(-c3cccc(NC(=O)c4nn(C)c(=O)n(C)c4=O)c3Cl)c2Cl)cc2c1[C@H](N[C@@H]1COC[C@@H]1O)CC2` (single isomer, unassigned) [Compound A-108] is lower in pEC50: no less than 8.00 for the first, 6.00 to 7.00 for the second.

First: COc1nc(-c2cccc(-c3cccc(NC(=O)c4nn(C)c(=O)n(C)c4=O)c3C)c2Cl)cc2c1[C@H](N[C@@H]1COC[C@@H]1O)CC2 (single isomer, unassigned) [Compound A-110]
Second: COc1nc(-c2cccc(-c3cccc(NC(=O)c4nn(C)c(=O)n(C)c4=O)c3C)c2C)cc2c1[C@@H](N[C@@H]1COC[C@@H]1O)CC2 (single isomer, unassigned) [Compound A-111]
The pEC50 of the first is lower: 6.00 to 7.00 for the first, 7.00 to 8.00 for the second.

`COc1nc(-c2cccc(-c3cccc(NC(=O)c4nn(C)c(=O)n(C)c4=O)c3C)c2C)cc2c1[C@H](N[C@@H]1COC[C@@H]1O)CC2` (single isomer, unassigned) [Compound A-112] and `COc1nc(-c2cccc(-c3cccc(NC(=O)c4cn(C)c(=O)n(C)c4=O)c3C)c2Cl)cc2c1[C@@H](NC[C@H]1CCC(=O)N1)CC2` (single isomer, unassigned) [Compound A-113] fall in the same range of pEC50: 5.00 to 6.00 for the first, 5.00 to 6.00 for the second.

`COc1nc(-c2cccc(-c3cccc(NC(=O)c4cn(C)c(=O)n(C)c4=O)c3C)c2Cl)cc2c1[C@H](NC[C@H]1CCC(=O)N1)CC2` (single isomer, unassigned) [Compound A-114] and `COCCOc1nc(-c2cccc(-c3cccc(NC(=O)c4cn(C)c(=O)n(C)c4=O)c3C)c2Cl)cc2c1[C@@H](NC[C@@H]1CCC(=O)N1)CC2` (single isomer, unassigned) [Compound A-115] cannot be ordered by pEC50: no less than 8.00 for the first, 7.00 to 8.00 for the second.

`COCCOc1nc(-c2cccc(-c3cccc(NC(=O)c4cn(C)c(=O)n(C)c4=O)c3C)c2Cl)cc2c1[C@H](NC[C@@H]1CCC(=O)N1)CC2` (single isomer, unassigned) [Compound A-116] was tested, and the pEC50 was 5.00 to 6.00.

same assay, conditions: co-culture 6 hrs at 37° C., NFAT-mediated luciferase activity

`COc1nc(-c2cccc(-c3cccc(NC(=O)c4cn(C)c(=O)n(C)c4=O)c3C)c2Cl)cc2c1C(NC[C@@H]1CCC(=O)N1)C(O)C2` (single isomer, unassigned) [Compound A-125] gave a pEC50 of less than 5.30.
`COc1nc(-c2cccc(-c3cccc(NC(=O)c4cn(C)c(=O)n(C)c4=O)c3C)c2Cl)cc2c1C(NC[C@@H]1CCC(=O)N1)C(O)C2` (single isomer, unassigned) [Compound A-126] was tested, and the pEC50 was 7.00 to 8.00.
